What was measured:
C. glabrata (ATCC 90030) = test: MIC80 and checkerboard synergy with antifungal agents; assay type: cell-based, Candida glabrata; conditions: C. glabrata (ATCC 90030); for MIC50 / MIC: Nakaseomyces glabratus, ATCC90030, compound alone; for MIC: read-out: MIC80
HMEC = test: Mammalian cytotoxicity, MTT reduction
HDAC [1] = test: HDAC inhibitory activity in fungal protoplasts (Fluor-de-Lys); assay type: cell-based, Candida glabrata; conditions: C. glabrata protoplasts; for HDAC inhibition, per cent in parentheses beside IC50 >20: concentration not given
Procedure: (§1) Protoplasts of C. albicans and C. glabrata are prepared by the […] method of Franzusoff et al.

C. albicans (ATCC 90028) = test: MIC80 and checkerboard synergy with antifungal agents; assay type: cell-based, Candida albicans; conditions: Candida albicans, ATCC90028; compound alone; C. albicans (ATCC 90028); read-out: MIC80
HDAC [2] = test: HDAC inhibitory activity in fungal protoplasts (Fluor-de-Lys); assay type: cell-based, Candida albicans; conditions: C. albicans protoplasts; for HDAC inhibition, per cent in parentheses beside IC50 >20: concentration not given
Procedure: as §1

A. fumigatus ATCC 1022 = test: MIC80 and checkerboard synergy, broth microdilution (NCCLS M38-A); assay type: cell-based, Aspergillus fumigatus; conditions: with ketoconazole; A. fumigatus ATCC 1022; 48 hours

Compound: O=C(Cc1ccc(CCCCCc2ccccc2)cc1)NO
- MIC50 (C. glabrata (ATCC 90030)): 6.25 mg/L

Compound: O=C(Cc1ccc(CCCCc2ccc(C(F)(F)F)cc2)cc1)NO
- MIC50 (C. glabrata (ATCC 90030)): > 25 mg/L

Compound: O=C(Cc1cccc(CCCCc2ccccc2)c1)NO
- MIC50 (C. glabrata (ATCC 90030)): 32 mg/L

Compound: O=C(Cc1ccc(CCC#Cc2ccc3nonc3c2)cc1)NO
- MIC50 (C. glabrata (ATCC 90030)): > 25 mg/L

Compound: O=C(Cc1ccc(CCCCc2ccc3c(c2)OCO3)cc1)NO
- MIC50 (C. glabrata (ATCC 90030)): > 25 mg/L

Compound: O=C(Cc1ccc(CCCCc2ccccc2C(F)(F)F)cc1)NO
- MIC50 (C. glabrata (ATCC 90030)): 12.5 mg/L

Compound: O=C(Cc1ccc(CCCCc2cccc(C(F)(F)F)c2)cc1)NO
- MIC50 (C. glabrata (ATCC 90030)): 12.5 mg/L

Compound: O=C(Cc1ccc(CCCCc2cc(F)c(F)cc2F)cc1)NO
- MIC50 (C. glabrata (ATCC 90030)): 3.1 mg/L

Compound: O=C(Cc1ccc(CCCCc2ccc3[nH]ccc3c2)cc1)NO
- MIC50 (C. glabrata (ATCC 90030)): > 25 mg/L

Compound: O=C(CCCCCC/C(=N\O)c1ccc(-c2ccccc2)cc1)NO
- MTT HMEC (HMEC): 6 µM

Compound: O=C(NO)c1cccc(CCCc2ccccc2)c1 [Cpd 1]
- HDAC inhibition IC50 (HDAC [1]): > 20 mg/L
- HDAC inhibition, per cent in parentheses beside IC50 >20 (HDAC [1]): 38%
- MIC (C. albicans (ATCC 90028)): > 16 mg/L
- HDAC inhibition IC50 (HDAC [2]): 9.1 mg/L

Compound: O=C(NO)c1ccc(CCCCCc2ccccc2)cc1 [Cpd 3]
- MTT HMEC (HMEC): 9 µM

Compound: O=C(Cc1ccc(CCCc2ccccc2)cc1)NO [Cpd 5]
- HDAC inhibition IC50 (HDAC [1]): > 20 mg/L
- HDAC inhibition, per cent in parentheses beside IC50 >20 (HDAC [1]): 37%
- MIC (C. albicans (ATCC 90028)): > 8 mg/L
- conc. for 4-fold synergy (A. fumigatus ATCC 1022): 4 µg/mL
- HDAC inhibition IC50 (HDAC [2]): > 20 mg/L
- HDAC inhibition, per cent in parentheses beside IC50 >20 (HDAC [2]): 42%
- MTT HMEC (HMEC): 47 µM
- MIC (C. glabrata (ATCC 90030)): > 50 mg/L

Compound: O=C(CCc1ccc(CCc2ccccc2)cc1)NO [Cpd 7]
- HDAC inhibition IC50 (HDAC [1]): > 20 mg/L
- HDAC inhibition, per cent in parentheses beside IC50 >20 (HDAC [1]): 27%
- MIC (C. albicans (ATCC 90028)): > 8 mg/L
- HDAC inhibition IC50 (HDAC [2]): > 20 mg/L
- HDAC inhibition, per cent in parentheses beside IC50 >20 (HDAC [2]): 15%
- MTT HMEC (HMEC): 10 µM
- MIC (C. glabrata (ATCC 90030)): 16 mg/L

Compound: COC(c1ccc(N(C)C)cc1)C(C)/C=C(C)/C=C/C(=O)NO (stereo not shown) [Cpd 10]
- MTT HMEC (HMEC): 50 µM

Compound: COc1ccc(C(OC)C(C)(C)CCCCC(=O)NO)cc1 (stereo not shown) [Cpd 11]
- HDAC inhibition IC50 (HDAC [1]): 50 mg/L
- MTT HMEC (HMEC): 50 µM

Compound: CC(/C=C/C(=O)NO)=C\C(C)Cc1ccc(N(C)C)cc1 (stereo not shown) [Cpd 12]
- conc. for 4-fold synergy (A. fumigatus ATCC 1022): 0.125 µg/mL
- MTT HMEC (HMEC): 44 µM

Compound: C[C@H](/C=C/C=C/C(=O)NO)Oc1ccc(-c2ccccc2)cc1 [Cpd 15]
- HDAC inhibition IC50 (HDAC [2]): > 20 mg/L
- HDAC inhibition, per cent in parentheses beside IC50 >20 (HDAC [2]): 18%

Compound: O=C(NO)c1ccc(CCCC(O)c2ccc3ccccc3c2)cc1 (stereo not shown) [Cpd 16]
- MTT HMEC (HMEC): 25 µM

Compound: O=C(/C=C/c1ccc(CNc2cccc(Cl)c2)cc1)NO [Cpd 18]
- HDAC inhibition IC50 (HDAC [2]): ~16 mg/L

Compound: Nc1ccc(-c2cccs2)cc1-c1cccs1 [Cpd 19]
- conc. for 4-fold synergy (24 hr) (C. glabrata (ATCC 90030); with ketoconazole, 24 hr): 0.5 (24 hr) μg/ml

Compound: O=C(Cc1ccccc1)NC(=S)Nc1ccc(Nc2ccnc3ccsc23)cc1 [Cpd 20]
- HDAC inhibition IC50 (HDAC [2]): > 20 mg/L
- HDAC inhibition, per cent in parentheses beside IC50 >20 (HDAC [2]): 16%
- MTT HMEC (HMEC): 50 µM

Compound: N#Cc1ccc(-c2ccc(OCCC(=O)NO)cc2)cc1 [Cpd 21]
- MTT HMEC (HMEC): 50 µM

Compound: O=C(NO)c1ccc(CN2c3ccccc3NC(=O)[C@H]2Cc2ccc3ccccc3c2)cc1 [Cpd 22]
- HDAC inhibition IC50 (HDAC [2]): ~0.6 mg/L
- MTT HMEC (HMEC): 8 µM

Reference: patent US8759400B2, “Histone deacetylase inhibitors for enhancing activity of antifungal agents” (MethylGene Inc., priority 2005, dated 2014)
